The values that follow come from ChEMBL document CHEMBL4004885, “Synthesis and biological activity of salinomycin-hydroxamic acid conjugates” (Bioorg Med Chem Lett, 2017).

The subject of data set [1] is MDA-MB-231. As to the kind of experiment: Cytotoxicity against human MDA-MB-231 cells assessed as decrease in cell proliferation after 48 hrs by MTT assay. To be noted: MDA-MB-231, 48 h. The data set is classed as functional, cell-based.
In data set [2] the test system is HT-29. The experiment in a line: Cytotoxicity against human HT-29 cells assessed as decrease in cell proliferation after 48 hrs by MTT assay. The data set is classed as functional, cell-based. Particulars: HT-29, 48 h.
Data set [3] deals with HGC-27. The experiment in a line: Cytotoxicity against human HGC27 cells assessed as decrease in cell proliferation after 48 hrs by MTT assay. The data set is classed as functional, cell-based. Particulars: HGC-27, 48 h.
A short description of data set [4]: Chemical stability in RPMI1640 medium at 10 mg after 72 hrs by 1H NMR method. The data set is classed as physicochemical.
Data set [5] deals with MDA-MB-231. The experiment in a line: Cytotoxicity against human MDA-MB-231 cells assessed as decrease in cell proliferation at 10 uM after 48 hrs in presence of salinomycin by MTT assay. The data set is classed as functional, cell-based.
Data set [6] relates to MDA-MB-231. As to the kind of experiment: Cytotoxicity against human MDA-MB-231 cells assessed as decrease in cell proliferation after 48 hrs in presence of salinomycin by MTT assay. The data set is classed as functional, cell-based. Particulars: MDA-MB-231, 48 h.
Data set [7] concerns HT-29. The experiment in a line: Potency index, ratio of salinomycin IC50 to test compound IC50 for human HT-29 cells. The data set is classed as functional.
The test system of data set [8] is HGC-27. The experiment in a line: Potency index, ratio of salinomycin IC50 to test compound IC50 for human HGC27 cells. The data set is classed as functional.
The subject of data set [9] is MDA-MB-231. As to the kind of experiment: Potency index, ratio of salinomycin IC50 to test compound IC50 for human MDA-MB-231 cells. The data set is classed as functional.

Molecules are shown by their SMILES. Activity calls are given as the source filed them. The rule behind the calls is not given here.

As for `CC(=O)O[C@H]1C(=O)[C@@]2(C)[C@H]([C@H](OC(=O)c3ccccc3)[C@]3(O)C[C@H](OC(=O)[C@H](O)[C@@H](NC(=O)c4ccccc4)c4ccccc4)C(C)=C1C3(C)C)[C@]1(OC(C)=O)CO[C@@H]1C[C@@H]2O` [PACLITAXEL], in the data set on MDA-MB-231 [1], the IC50 amounted to 80 nM.
As for `CC[C@@H](C(=O)[C@@H](C)[C@@H](O)[C@H](C)[C@@H]1O[C@@H]([C@@H](CC)C(=O)ONC(C)=O)CC[C@@H]1C)[C@H]1O[C@]2(C=C[C@@H](O)[C@]3(CC[C@@](C)([C@H]4CC[C@](O)(CC)[C@H](C)O4)O3)O2)[C@H](C)C[C@@H]1C`, the values for the IC50 with HT-29 [2], with HGC-27 [3] and in the data set on MDA-MB-231 [1] were 2320 nM, 2250 nM and 3790 nM, respectively. Also, the Stability entry in [4] is “Stable”.
Regarding `O=C(NO)c1ccccc1` [BENZOHYDROXAMATE], the outcome with MDA-MB-231 [5] was inactive. The 50% inhibitory concentration (IC50) in the data set on MDA-MB-231 [6] is 9850 nM.
Regarding `CC[C@@H](C(=O)[C@@H](C)[C@@H](O)[C@H](C)[C@@H]1O[C@@H]([C@@H](CC)C(=O)ONC(=O)/C=C/c2ccccc2)CC[C@@H]1C)[C@H]1O[C@]2(C=C[C@@H](O)[C@]3(CC[C@@](C)([C@H]4CC[C@](O)(CC)[C@H](C)O4)O3)O2)[C@H](C)C[C@@H]1C`, the IC50 with HT-29 [2] stood at 7230 nM; in the data set on HGC-27 [3], 7270 nM; in the data set with MDA-MB-231 [1], 9640 nM. Moreover, the Stability result in [4] is “Stable”.
Regarding `CC[C@@H](C(=O)[C@@H](C)[C@@H](O)[C@H](C)[C@@H]1O[C@@H]([C@@H](CC)C(=O)ONC(=O)Cc2ccccc2Br)CC[C@@H]1C)[C@H]1O[C@]2(C=C[C@@H](O)[C@]3(CC[C@@](C)([C@H]4CC[C@](O)(CC)[C@H](C)O4)O3)O2)[C@H](C)C[C@@H]1C`, the results for the IC50 with HT-29 [2], with HGC-27 [3] and in the data set on MDA-MB-231 [1] were 800 nM, 760 nM and 930 nM, respectively. Also, the Stability entry in [4] is listed as “Stable”.
Regarding `CC[C@@H](C(=O)[C@@H](C)[C@@H](O)[C@H](C)[C@@H]1O[C@@H]([C@@H](CC)C(=O)ONC(=O)CCc2ccccc2)CC[C@@H]1C)[C@H]1O[C@]2(C=C[C@@H](O)[C@]3(CC[C@@](C)([C@H]4CC[C@](O)(CC)[C@H](C)O4)O3)O2)[C@H](C)C[C@@H]1C`, the figures for the IC50 with HT-29 [2], in the data set on HGC-27 [3] and with MDA-MB-231 [1] were 800 nM, 1050 nM and 1890 nM, respectively. In addition, the “Ratio IC50” value in the data set with HT-29 [7], in the data set with HGC-27 [8] and in the data set on MDA-MB-231 [9] was 1.5 - 7 throughout. Also, the Stability result in [4] is “Stable”.
Take `CCCCCCCC(=O)NOC(=O)[C@H](CC)[C@H]1CC[C@H](C)[C@H]([C@@H](C)[C@H](O)[C@H](C)C(=O)[C@H](CC)[C@H]2O[C@]3(C=C[C@@H](O)[C@]4(CC[C@@](C)([C@H]5CC[C@](O)(CC)[C@H](C)O5)O4)O3)[C@H](C)C[C@@H]2C)O1`: the figures for the IC50 in the data set on HT-29 [2], in the data set with HGC-27 [3] and with MDA-MB-231 [1] were 960 nM, 1350 nM and 2690 nM, respectively. For the same molecule, the “Ratio IC50” value with HT-29 [7], in the data set on HGC-27 [8] and with MDA-MB-231 [9] was 1.5 - 2.5 throughout. Moreover, the Stability entry in [4] is recorded as “Stable”.
For the molecule `C/C=C/C=C/C(=O)NOC(=O)[C@H](CC)[C@H]1CC[C@H](C)[C@H]([C@@H](C)[C@H](O)[C@H](C)C(=O)[C@H](CC)[C@H]2O[C@]3(C=C[C@@H](O)[C@]4(CC[C@@](C)([C@H]5CC[C@](O)(CC)[C@H](C)O5)O4)O3)[C@H](C)C[C@@H]2C)O1`, the IC50 in the data set on HT-29 [2] was determined as 2310 nM; in the data set on HGC-27 [3], 2630 nM; in the data set on MDA-MB-231 [1], 3820 nM. Moreover, the Stability result in [4] is given as “Stable”.
Regarding `CC[C@@H](C(=O)[C@@H](C)[C@@H](O)[C@H](C)[C@@H]1O[C@@H]([C@@H](CC)C(=O)O)CC[C@@H]1C)[C@H]1O[C@]2(C=C[C@@H](O)[C@]3(CC[C@@](C)([C@H]4CC[C@](O)(CC)[C@H](C)O4)O3)O2)[C@H](C)C[C@@H]1C` [SALINOMYCIN], the IC50 in the data set with HT-29 [2] was 1430 nM; in the data set with HGC-27 [3] it was 2570 nM; in the data set with MDA-MB-231 [1], 6530 to 6910 nM. In addition, the Stability result in data set [4] is recorded as “Stable”.
For the molecule `O=C(Cc1ccccc1)NO` [PHENYLACETOHYDROXAMIC ACID], the outcome in the data set on MDA-MB-231 [5] was inactive. The IC50 with MDA-MB-231 [6] was 9720 nM.
Consider `O=C(NO)c1ccc(Br)cc1`, for which, in the data set on MDA-MB-231 [5], the result was inactive. For the same molecule, the IC50 with MDA-MB-231 [6] is more than 10000 nM.
For the molecule `C/C=C/C=C/C(=O)NO`, the outcome with MDA-MB-231 [5] was inactive. Further, the IC50 in the data set with MDA-MB-231 [6] was 7890 nM.
For the molecule `O=C(Cc1ccccc1Br)NO`, the outcome in the data set with MDA-MB-231 [5] was inactive. Also, the IC50 with MDA-MB-231 [6] is more than 10000 nM.
With `CC[C@@H](C(=O)[C@@H](C)[C@@H](O)[C@H](C)[C@@H]1O[C@@H]([C@@H](CC)C(=O)ONC(=O)c2ccccc2)CC[C@@H]1C)[C@H]1O[C@]2(C=C[C@@H](O)[C@]3(CC[C@@](C)([C@H]4CC[C@](O)(CC)[C@H](C)O4)O3)O2)[C@H](C)C[C@@H]1C`, the values for the concentration for half-maximal inhibition (IC50) in the data set on HT-29 [2], in the data set with HGC-27 [3] and with MDA-MB-231 [1] were 850 nM, 920 nM and 2260 nM, respectively. The “Ratio IC50” value with HT-29 [7], in the data set with HGC-27 [8] and in the data set with MDA-MB-231 [9] was 1.5 - 7 throughout. In addition, the Stability entry in data set [4] was “Stable”.
Regarding `O=C(/C=C/c1ccccc1)NO`, the result in the data set with MDA-MB-231 [5] was inactive. Also, the IC50 in the data set with MDA-MB-231 [6] was 8980 nM.
As for `CC[C@@H](C(=O)[C@@H](C)[C@@H](O)[C@H](C)[C@@H]1O[C@@H]([C@@H](CC)C(=O)ONC(=O)c2ccccc2O)CC[C@@H]1C)[C@H]1O[C@]2(C=C[C@@H](O)[C@]3(CC[C@@](C)([C@H]4CC[C@](O)(CC)[C@H](C)O4)O3)O2)[C@H](C)C[C@@H]1C`, the IC50 in the data set with HT-29 [2] was 880 nM; with HGC-27 [3] it was 920 nM; in the data set with MDA-MB-231 [1], 2780 nM. Moreover, the Stability entry in data set [4] is “Stable”.
Regarding `CC[C@@H](C(=O)[C@@H](C)[C@@H](O)[C@H](C)[C@@H]1O[C@@H]([C@@H](CC)C(=O)ONC(=O)Cc2ccccc2)CC[C@@H]1C)[C@H]1O[C@]2(C=C[C@@H](O)[C@]3(CC[C@@](C)([C@H]4CC[C@](O)(CC)[C@H](C)O4)O3)O2)[C@H](C)C[C@@H]1C`, the values for the 50% inhibitory concentration (IC50) with HT-29 [2], in the data set with HGC-27 [3] and in the data set with MDA-MB-231 [1] were 900 nM, 1290 nM and 1010 nM, respectively. For the same molecule, the “Ratio IC50” value in the data set with HT-29 [7], with HGC-27 [8] and in the data set with MDA-MB-231 [9] was 1.5 - 7 throughout. The Stability result in [4] is reported as “Stable”.
For `CC[C@@H](C(=O)[C@@H](C)[C@@H](O)[C@H](C)[C@@H]1O[C@@H]([C@@H](CC)C(=O)ONC(=O)c2ccc(Br)cc2)CC[C@@H]1C)[C@H]1O[C@]2(C=C[C@@H](O)[C@]3(CC[C@@](C)([C@H]4CC[C@](O)(CC)[C@H](C)O4)O3)O2)[C@H](C)C[C@@H]1C`, the results for the IC50 with HT-29 [2], in the data set on HGC-27 [3] and in the data set on MDA-MB-231 [1] were 700 nM, 510 nM and 940 nM, respectively. Further, the “Ratio IC50” value in the data set with HGC-27 [8] and with MDA-MB-231 [9] was 7 in each case. Besides, the Stability result in data set [4] is listed as “Stable”.
